Test results as given in patent publication US11845724B2, “USP30 inhibitors and uses thereof” (Vincere Biosciences, Inc., priority 2019, dated 2023).
Like-named read-outs stand apart in the source and are kept apart here.

Legend:
USP30 = USP30 (Homo sapiens (Human), UniProt Q70CQ3); test: Dundee MALDI-TOF mass spectrometry assay (IC50); format: biochemical; conditions: USP30 25 ng/μl, K48-linked diubiquitin 5.6 μM, avg, read-out: Dundee IC50 μM (avg in vitro MS assay)
Procedure: Compounds were tested in a MALDI-TOF assay based on the paper by Ritorto et al. (Ritorto et al. Screening of DUB activity and specificity by MALDI-TOF mass spectrometry. Nat. […] USP30 (25 ng/μl) tested against K48-linked diubiquitin (5.6 μM). USP30 was diluted in a buffer containing 40 mM Tris, 0.01% BSA, 1 mM DTT and K48 in 40 mM Tris, 0.01% BSA. The compounds were pre-incubated with the USP30 for 5 mins at room temp before the K48 dimer addition. The assay mixture was then incubated for 45 mins at room temp. The assay was stopped by the addition of TFA to a final concentration of 2% (v/v). […] Then 250 nl of these solutions were spotted onto an MTP AnchorChip 1,536 TF and this is analysed on the Bruker rapifleX MALDI-TOF.

[1] = molecular target: recombinant USP30 (amino acids 57-517 of the human sequence) (Homo sapiens (Human), UniProt Q70CQ3); test: In vitro USP30 biochemical assay (Ubiquitin-Rhodamine)
Chain of recombinant USP30 (amino acids 57-517 of the human sequence) (Q70CQ3 57-517): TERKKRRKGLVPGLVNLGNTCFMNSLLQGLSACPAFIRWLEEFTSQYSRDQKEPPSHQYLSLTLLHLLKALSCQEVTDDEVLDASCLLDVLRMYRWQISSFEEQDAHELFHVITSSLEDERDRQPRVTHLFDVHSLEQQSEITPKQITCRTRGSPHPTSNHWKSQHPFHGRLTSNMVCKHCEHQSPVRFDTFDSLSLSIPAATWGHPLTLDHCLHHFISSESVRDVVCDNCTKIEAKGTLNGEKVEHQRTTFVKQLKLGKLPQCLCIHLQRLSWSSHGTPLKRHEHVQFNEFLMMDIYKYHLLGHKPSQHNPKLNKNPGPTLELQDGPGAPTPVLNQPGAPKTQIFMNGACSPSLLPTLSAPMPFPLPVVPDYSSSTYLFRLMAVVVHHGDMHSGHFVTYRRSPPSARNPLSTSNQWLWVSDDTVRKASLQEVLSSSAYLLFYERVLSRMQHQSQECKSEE
Procedure: In vitro biochemical assay to establish the potency of compounds for USP30 inhibition: a 384-well plate assay using a fluorophore tagged substrate of USP30 was used for in vitro screening of compounds. Each compound was tested at 10 different concentrations (0.5 to 10,000 nM) in duplicate wells. Compounds were pre-incubated at 25° C. for 30 min in an assay buffer consisting of 20 mM Tris/HCl, pH8.0, 1 mM GSH, 0.01% Triton X-100, 0.03% BGG and 1.5 nM recombinant USP30 (amino acids 57-517 of the human sequence with a C-terminal 6-His tag). Following the pre-incubation, Ubiquitin-Rhodamine substrate dissolved in the assay buffer was added at the final concentration of 25 nM to each well and plates were incubated at 25° C. for an additional 75 minutes. The reaction was stopped by adding 10 mM citric acid and fluorescence was read using excitation wavelength 485 nm, emission of 535 nm. Data were analyzed using Graph Pad Prism software with a four-parameter (floating slope) fit to log concentration data to determine IC50s.

[2] = read-out: USP30 IC50 μM (avg), Ubiquitin-Rhodamine substrate 25 nM, 1.5 nM recombinant USP30
[3] = USP30 IC50 μM (avg), Ubiquitin-Rhodamine substrate 25 nM, 1.5 nM recombinant USP30

Chain of USP30 (Q70CQ3 whole entry): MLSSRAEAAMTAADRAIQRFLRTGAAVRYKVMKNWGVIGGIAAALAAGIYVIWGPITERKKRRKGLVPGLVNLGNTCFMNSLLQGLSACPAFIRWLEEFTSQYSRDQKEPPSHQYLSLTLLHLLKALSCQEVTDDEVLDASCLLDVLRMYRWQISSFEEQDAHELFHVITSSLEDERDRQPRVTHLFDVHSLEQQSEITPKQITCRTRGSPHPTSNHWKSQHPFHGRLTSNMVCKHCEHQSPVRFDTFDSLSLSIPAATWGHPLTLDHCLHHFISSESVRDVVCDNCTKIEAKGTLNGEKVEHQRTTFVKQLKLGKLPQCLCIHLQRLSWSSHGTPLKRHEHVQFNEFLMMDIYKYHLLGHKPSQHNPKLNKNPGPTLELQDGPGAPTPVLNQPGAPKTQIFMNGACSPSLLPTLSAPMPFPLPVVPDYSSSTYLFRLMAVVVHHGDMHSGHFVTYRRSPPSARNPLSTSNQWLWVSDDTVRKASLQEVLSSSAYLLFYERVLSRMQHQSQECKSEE

| SMILES | IC50 (USP30) [µM] | IC50 [1, 2] [µM] | IC50 [1, 3] [µM] |
| --- | --- | --- | --- |
| O=C(NC1(C(=O)Nc2ccc(S(=O)(=O)NC3COC3)cc2)Cc2ccccc2C1)c1ccc(F)cc1 [Compound I-101, 2-(4-fluorobenzamido)-N-(4-(N-oxetan-3-ylsulfamoyl)phenyl)-2,3-dihydro-1H-indene-2-carboxamide] | > 10 | > 10 |  |
| O=C(NC1(C(=O)Nc2ccc(S(=O)(=O)NC34CC(C3)C4)cc2)Cc2ccccc2C1)c1ccc(F)cc1 [Compound I-102, N-(4-(N-bicyclo[1.1.1]pentan-1-ylsulfamoyl)phenyl)-2-(4-fluorobenzamido)-2,3-dihydro-1H-indene-2-carboxamide] | 0.05 to 1 | > 10 |  |
| CCNS(=O)(=O)c1ccc(NC(=O)[C@H](Cc2ccccc2)NC(=O)c2ccc(F)cc2)cn1 [Compound I-105, (S)-N-(1-(6-(N-ethylsulfamoyl)pyridin-3-ylamino)-1-oxo-3-phenylpropan-2-yl)-4-fluorobenzamide] | 0.05 to 1 |  | 0.05 to 1 |
| O=C(N[C@@H](Cc1ccccc1)C(=O)Nc1ccc(S(=O)(=O)NC2COC2)nc1)c1ccc(F)cc1 [Compound I-106, (S)-4-fluoro-N-(1-(6-(N-oxetan-3-ylsulfamoyl)pyridin-3-ylamino)-1-oxo-3-phenylpropan-2-yl)benzamide] | 0.05 to 1 |  | 0.05 to 1 |
| COCCNS(=O)(=O)c1ccc(NC(=O)[C@H](Cc2ccccc2)NC(=O)c2ccc(F)cc2)cn1 [Compound I-108, (S)-4-fluoro-N-(1-(6-(N-(2-methoxyethyl)sulfamoyl)pyridin-3-ylamino)-1-oxo-3-phenylpropan-2-yl)benzamide] | 0.05 to 1 |  | 0.05 to 1 |
| O=C(N[C@@H](Cc1ccccc1)C(=O)Nc1ccc(S(=O)(=O)NCCN2CCOCC2)nc1)c1ccc(F)cc1 [Compound I-111, (S)-4-fluoro-N-(1-(6-(N-(2-morpholinoethyl)sulfamoyl)pyridin-3-ylamino)-1-oxo-3-phenylpropan-2-yl)benzamide] | 0.05 to 1 |  | 0.05 to 1 |
| O=C(N[C@@H](Cc1ccccc1)C(=O)Nc1ccc(S(=O)(=O)NCCCN2CCOCC2)nc1)c1ccc(F)cc1 [Compound I-112, (S)-4-fluoro-N-(1-(6-(N-(3-morpholinopropyl)sulfamoyl)pyridin-3-ylamino)-1-oxo-3-phenylpropan-2-yl)benzamide] | 0.05 to 1 |  | 0.05 to 1 |
| COCC(C)(C)NS(=O)(=O)c1ccc(NC(=O)[C@H](Cc2ccccc2)NC(=O)c2ccc(F)cc2)cn1 [Compound I-113, (S)-4-fluoro-N-(1-(6-(N-(1-methoxy-2-methylpropan-2-yl)sulfamoyl)pyridin-3-ylamino)-1-oxo-3-phenylpropan-2-yl)benzamide] | 0.05 to 1 |  | 0.05 to 1 |
| CC(C)(C)OCCNS(=O)(=O)c1ccc(NC(=O)[C@H](Cc2ccccc2)NC(=O)c2ccc(F)cc2)cn1 [Compound I-114, (S)-N-(1-(6-(N-(2-tert-butoxyethyl)sulfamoyl)pyridin-3-ylamino)-1-oxo-3-phenylpropan-2-yl)-4-fluorobenzamide] | 0.05 to 1 |  | 0.05 to 1 |
| CC1(NS(=O)(=O)c2ccc(NC(=O)[C@H](Cc3ccccc3)NC(=O)c3ccc(F)cc3)cn2)COC1 [Compound I-115, (S)-4-fluoro-N-(1-(6-(N-(3-methyloxetan-3-yl)sulfamoyl)pyridin-3-ylamino)-1-oxo-3-phenylpropan-2-yl)benzamide] | < 0.05 |  | 0.05 to 1 |
| CC(C)(CO)NS(=O)(=O)c1ccc(NC(=O)[C@H](Cc2ccccc2)NC(=O)c2ccc(F)cc2)cn1 [Compound I-116, (S)-4-fluoro-N-(1-(6-(N-(1-hydroxy-2-methylpropan-2-yl)sulfamoyl)pyridin-3-ylamino)-1-oxo-3-phenylpropan-2-yl)benzamide] | 0.05 to 1 |  | 0.05 to 1 |
| CCNS(=O)(=O)c1ccc(NC(=O)[C@H](Cc2ccccc2)NC(=O)c2ccc(F)cc2)nc1 [Compound I-117, (S)-N-(1-(5-(N-ethylsulfamoyl)pyridin-2-ylamino)-1-oxo-3-phenylpropan-2-yl)-4-fluorobenzamide] | < 0.05 |  | 0.05 to 1 |
| O=C(N[C@@H](Cc1ccccc1)C(=O)Nc1ccc(S(=O)(=O)NC23CC(C2)C3)cn1)c1ccc(F)cc1 [Compound I-118, (S)-N-(1-(5-(N-bicyclo[1.1.1]pentan-1-ylsulfamoyl)pyridin-2-ylamino)-1-oxo-3-phenylpropan-2-yl)-4-fluorobenzamide] | 0.05 to 1 |  | 0.05 to 1 |
| O=C(N[C@@H](Cc1ccccc1)C(=O)Nc1ccc(S(=O)(=O)NC2COC2)cn1)c1ccc(F)cc1 [Compound I-119, (S)-4-fluoro-N-(1-(5-(N-oxetan-3-ylsulfamoyl)pyridin-2-ylamino)-1-oxo-3-phenylpropan-2-yl)benzamide] | 0.05 to 1 |  | 0.05 to 1 |
| COCCNS(=O)(=O)c1ccc(NC(=O)[C@H](Cc2ccccc2)NC(=O)c2ccc(F)cc2)nc1 [Compound I-120, (S)-4-fluoro-N-(1-(5-(N-(2-methoxyethyl)sulfamoyl)pyridin-2-ylamino)-1-oxo-3-phenylpropan-2-yl)benzamide] | 0.05 to 1 |  | 0.05 to 1 |
| O=C(N[C@@H](Cc1ccccc1)C(=O)Nc1ccc(S(=O)(=O)NCCO)cn1)c1ccc(F)cc1 [Compound I-121, (S)-4-fluoro-N-(1-(5-(N-(2-hydroxyethyl)sulfamoyl)pyridin-2-ylamino)-1-oxo-3-phenylpropan-2-yl)benzamide] | 0.05 to 1 |  | 0.05 to 1 |
| O=C(N[C@@H](Cc1ccccc1)C(=O)Nc1ccc(S(=O)(=O)NCCN2CCOCC2)cn1)c1ccc(F)cc1 [Compound I-122, (S)-4-fluoro-N-(1-(5-(N-(2-morpholinoethyl)sulfamoyl)pyridin-2-ylamino)-1-oxo-3-phenylpropan-2-yl)benzamide] | 0.05 to 1 |  | 0.05 to 1 |
| O=C(N[C@@H](Cc1ccccc1)C(=O)Nc1ccc(S(=O)(=O)NCCCN2CCOCC2)cn1)c1ccc(F)cc1 [Compound I-123, (S)-4-fluoro-N-(1-(5-(N-(3-morpholinopropyl)sulfamoyl)pyridin-2-ylamino)-1-oxo-3-phenylpropan-2-yl)benzamide] | 0.05 to 1 |  | 0.05 to 1 |
| CCNS(=O)(=O)c1cccc2c(NC(=O)[C@H](Cc3ccccc3)NC(=O)C3CCCCC3)cccc12 [Compound I-124, (S)-N-(1-(5-(N-ethylsulfamoyl)naphthalen-1-ylamino)-1-oxo-3-phenylpropan-2-yl)cyclohexanecarboxamide] | < 0.05 |  | 0.05 to 1 |
| CCNS(=O)(=O)c1cccc2c(NC(=O)[C@H](Cc3ccccc3)NC(=O)c3ccc(F)cc3)cccc12 [Compound I-125] | < 0.05 |  | 0.05 to 1 |
| CCNS(=O)(=O)N1CCCc2c(NC(=O)[C@H](Cc3ccccc3)NC(=O)C3CCCCC3)cccc21 [Compound I-126, (S)-N-(1-(1-(N-ethylsulfamoyl)-1,2,3,4-tetrahydroquinolin-5-ylamino)-1-oxo-3-phenylpropan-2-yl)cyclohexanecarboxamide] | 1 to 10 | > 10 |  |
| CC(C)(C)NS(=O)(=O)N1CCCc2c(NC(=O)[C@H](Cc3ccccc3)NC(=O)C3CCCCC3)cccc21 [Compound I-129, (S)-N-(1-(1-(N-tert-butylsulfamoyl)-1,2,3,4-tetrahydroquinolin-5-ylamino)-1-oxo-3-phenylpropan-2-yl)cyclohexanecarboxamide] | 1 to 10 |  | 1 to 10 |
| O=C(N[C@@H](Cc1ccccc1)C(=O)Nc1cccc2c(S(=O)(=O)NC3COC3)cccc12)c1ccc(F)cc1 [Compound I-131, (S)-4-fluoro-N-(1-(5-(N-oxetan-3-ylsulfamoyl)naphthalen-1-ylamino)-1-oxo-3-phenylpropan-2-yl)benzamide] | 0.05 to 1 |  | 0.05 to 1 |
| COCCNS(=O)(=O)c1ccc(NC(=O)[C@H](Cc2ccccc2)NC(=O)c2ccc(F)cc2)cc1 [Compound I-132, (S)-4-fluoro-N-(1-(4-(N-(2-methoxyethyl)sulfamoyl)phenylamino)-1-oxo-3-phenylpropan-2-yl)benzamide] | < 0.05 |  | 0.05 to 1 |
| CN(C)CCNS(=O)(=O)c1ccc(NC(=O)[C@H](Cc2ccccc2)NC(=O)c2ccc(F)cc2)cc1 [Compound I-133, (S)-N-(1-(4-(N-(2-(dimethylamino)ethyl)sulfamoyl)phenylamino)-1-oxo-3-phenylpropan-2-yl)-4-fluorobenzamide] | 1 to 10 |  | 0.05 to 1 |
| COCC(C)(C)NS(=O)(=O)c1ccc(NC(=O)[C@H](Cc2ccccc2)NC(=O)c2ccc(F)cc2)cc1 [Compound I-134, (S)-4-fluoro-N-(1-(4-(N-(1-methoxy-2-methylpropan-2-yl)sulfamoyl)phenylamino)-1-oxo-3-phenylpropan-2-yl)benzamide] | < 0.05 | < 0.05 |  |
| CC(C)(C)OCCNS(=O)(=O)c1ccc(NC(=O)[C@H](Cc2ccccc2)NC(=O)c2ccc(F)cc2)cc1 [Compound I-135, (S)-N-(1-(4-(N-(2-tert-butoxyethyl)sulfamoyl)phenylamino)-1-oxo-3-phenylpropan-2-yl)-4-fluorobenzamide] | 0.05 to 1 |  | 1 to 10 |
| CC1(NS(=O)(=O)c2ccc(NC(=O)[C@H](Cc3ccccc3)NC(=O)c3ccc(F)cc3)cc2)COC1 [Compound I-136, (S)-4-fluoro-N-(1-(4-(N-(3-methyloxetan-3-yl)sulfamoyl)phenylamino)-1-oxo-3-phenylpropan-2-yl)benzamide] | < 0.05 | < 0.05 |  |
